Results on 11 molecules are retold here after ChEMBL document CHEMBL1201862, “PubChem BioAssay data set” (2004).

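Growth conditions: 96-well plates. Treatment: test compound, 48 hours, 5 concentrations. Analysis: linear interpolation between bracketing concentrations; unreached endpoints set to highest concentration. GI50 is the concentration that inhibits growth by half.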 Active and inactive are the calls of the source. No stated cut-off is given here; in the data, active = GI50 up to about 1.1 µM and inactive = higher. Where only a bound is given, the exact number is not on record here.

What all share (assay): NCI tumour cell line growth inhibition, 48 h
The subject of test [1] is 786-0.
In test [2] the test system is A498.
For test [3], the system named is ACHN.
For test [4], the system named is HCT-116.
The test system of test [5] is HCT-15.
For test [6], the system named is HL-60.
Test [7] deals with IGROV-1.
Test [8] has as its system MOLT-4.
Test [9] relates to NCI-H23.
Test [10] relates to OVCAR-4.
The test system of test [11] is OVCAR-5.
Test [12] deals with SF-268.
For test [13], the system named is SF-539.
The test system of test [14] is SK-MEL-28.
The test system of test [15] is SK-MEL-5.
For test [16], the system named is UACC-257.
In test [17] the test system is UO-31.
Test [18] deals with CCRF-CEM.
Test [19] concerns COLO 205.
The subject of test [20] is SNB-19.

For the molecule `O=C1/C(=C/c2cccs2)N=C(c2ccccc2)N1C1Nc2cc3c(cc2S1)NC(N1C(=O)/C(=C/c2cccs2)N=C1c1ccccc1)S3` (centres undefined), the GI50 in test [1] was 16.4 µM (inactive); in test [2], 69.5 µM (inactive); in test [3] it was 34.1 µM (inactive); in [4] it was 15 µM (inactive); in [5], 15.6 µM; in test [6], 2.59 µM (inactive). Also, the GI50 is 32.1 µM (inactive) in [7]; 12.6 µM (inactive) in test [8]; 17.4 µM (inactive) in test [9]; 24.9 µM (inactive) in [10]; 27.7 µM (inactive) in test [11]; 20.2 µM (inactive) in test [12]. The GI50 in test [13] is 14 µM (inactive); in [14] it was 32.3 µM (inactive); in test [15] it was 17 µM (inactive); in test [16], 71.9 µM (inactive); in test [17], 35.3 µM (inactive).

`N#CCC(=O)N/N=C1\C(=O)N(c2ccc(Cl)cc2)C(=O)C(=O)C1c1nc2ccccc2o1` (centres undefined): the GI50 in test [1], in test [2], in test [3], in [18], in test [19] and in [4] was > 100 µM (inactive) throughout. Also, the GI50 in [5] was above 100 µM; in test [6], > 100 µM (inactive); in test [7] it was > 100 µM (inactive); in [8] it was > 100 µM (inactive); in [9], > 100 µM (inactive); in test [10], > 100 µM (inactive). Also, the GI50 in test [12], in test [13], in test [14], in test [15], in [20] and in test [16] was > 100 µM (inactive) each time. Moreover, the GI50 in test [17] was > 100 µM (inactive).

In the case of `CC1(C)OCC[C@@H]1[Si](C)(C)C`, the GI50 in [1] was > 100 µM (inactive); in [2], 30.1 µM (inactive); in [3], 27.5 µM (inactive); in test [18], 26.9 µM (inactive); in test [19], > 100 µM (inactive); in test [4] it was 92.7 µM (inactive). Also, the GI50 in test [5] was 32.4 µM; in test [7] it was > 100 µM (inactive); in test [8], 33 µM (inactive); in test [9], 53.6 µM (inactive); in [10] it was 55.3 µM (inactive); in test [11] it was > 100 µM (inactive). The GI50 in [12] is 36.2 µM (inactive); in [13], > 100 µM (inactive); in [14], 84.7 µM (inactive); in test [15], 26.9 µM (inactive); in test [20], > 100 µM (inactive); in test [16], > 100 µM (inactive). Besides, the GI50 in test [17] is 42.9 µM (inactive).

Regarding `CC1=C2c3c(C)ccc4ccc(C)c(c34)C2(O)C(C)C1=O` (centres undefined), the GI50 is 51.2 µM (inactive) in test [1]; > 100 µM (inactive) in test [2]; 73.6 µM (inactive) in [3]; 28.8 µM (inactive) in test [19]; 43.8 µM (inactive) in test [4]; 42.8 µM in test [5]. Moreover, the GI50 in [6] was 28.2 µM (inactive); in test [7], 49.2 µM (inactive); in test [8], 25 µM (inactive); in test [10] it was 65 µM (inactive); in [11], > 100 µM (inactive); in test [12], 63.4 µM (inactive). Moreover, the GI50 in test [13] is > 100 µM (inactive); in test [14] it was 84.3 µM (inactive); in [15], 29.2 µM (inactive); in test [20], 44.3 µM (inactive); in test [16], 53.8 µM (inactive); in test [17], 21.3 µM (inactive).

For `CC#C[C@@]1(O)CCCC[C@@H]1O`, the GI50 in test [1], in test [2], in [3], in [18], in test [19] and in [4] was > 100 µM (inactive) throughout. Also, the GI50 in [5] was above 100 µM; in [6], > 100 µM (inactive); in [7] it was > 100 µM (inactive); in test [8], > 100 µM (inactive); in test [9] it was > 100 µM (inactive); in [10], > 100 µM (inactive). Moreover, the GI50 in test [12], in test [13], in test [14], in test [15], in [20] and in [16] was > 100 µM (inactive) throughout. Further, the GI50 in [17] is > 100 µM (inactive).

For the molecule `O=c1[nH]c2cc(C(F)(F)F)ccc2nc1C(F)(F)F`, the GI50 is 37 µM (inactive) in test [1]; 41.3 µM (inactive) in [2]; 37.3 µM (inactive) in test [3]; 30.8 µM (inactive) in test [18]; 30.9 µM (inactive) in test [19]; 27.5 µM (inactive) in test [4]. The GI50 in test [5] was 37.2 µM; in [7] it was 29.3 µM (inactive); in [8] it was 38.4 µM (inactive); in [9], 27.2 µM (inactive); in test [10] it was 51.5 µM (inactive); in test [11], 36.9 µM (inactive). Besides, the GI50 is 40.4 µM (inactive) in test [12]; 25.2 µM (inactive) in [13]; 68.9 µM (inactive) in [14]; 13.8 µM (inactive) in [15]; 35.6 µM (inactive) in [20]; 27.6 µM (inactive) in test [16]. The GI50 in test [17] is 30.4 µM (inactive).

As to `Cc1ncc([N+](=O)[O-])n1CC[N+](C)([O-])CCCCn1ccnc1[N+](=O)[O-]` (centres undefined), the GI50 in [1], in [2], in [3], in test [18], in [19] and in [4] was > 100 µM (inactive) throughout. In addition, the GI50 in test [5] was above 100 µM; in test [6], > 100 µM (inactive); in [7], > 100 µM (inactive); in [8], > 100 µM (inactive); in test [9], > 100 µM (inactive); in [10] it was > 100 µM (inactive). Moreover, the GI50 in test [11], in [12], in test [13], in test [14], in test [15] and in [16] was > 100 µM (inactive) each time. The GI50 in [17] was > 100 µM (inactive).

In the case of `N#CN=C(N(Cc1ccccc1)Cc1ccccc1)N(Cc1ccccc1)Cc1ccccc1`, the GI50 was 14.7 µM (inactive) in test [2]; 4.53 µM (inactive) in test [3]; 5.73 µM (inactive) in test [18]; 11.7 µM (inactive) in test [19]; 3.51 µM (inactive) in [4]; 6.37 µM in test [5]. For the same molecule, the GI50 in [6] is 5.14 µM (inactive); in test [7], 3.48 µM (inactive); in test [8] it was 2.74 µM (inactive); in test [11], 45.2 µM (inactive); in test [12] it was > 100 µM (inactive); in test [13], 46.7 µM (inactive). Also, the GI50 in test [20] was 28.7 µM (inactive); in [16], 8.47 µM (inactive); in [17] it was 5.64 µM (inactive).

Turning to `O=C(CC(=O)Nc1ccc(C(=O)O)cc1)Nc1ccc(C(=O)O)cc1`, the GI50 in test [1], in test [2], in [3], in [18], in test [19] and in test [4] was > 100 µM (inactive) in each case. Moreover, the GI50 is above 10 µM in test [5]; > 100 µM (inactive) in test [6]; > 100 µM (inactive) in test [7]; > 100 µM (inactive) in test [8]; > 100 µM (inactive) in test [9]; > 100 µM (inactive) in test [10]. For the same molecule, the GI50 in [12] is 34.6 µM (inactive); in test [13] it was > 100 µM (inactive); in test [14] it was > 100 µM (inactive); in test [15] it was > 100 µM (inactive); in test [20] it was > 100 µM (inactive); in [16] it was > 100 µM (inactive). Besides, the GI50 in [17] is > 100 µM (inactive).

Turning to `CCOP(=O)(OCC)C(Cc1c[nH]c2ccccc12)C(=O)O` (centres undefined), the GI50 in [2] is > 100 µM (inactive); in test [3], > 100 µM (inactive); in [18], > 100 µM (inactive); in [19] it was > 100 µM (inactive); in test [4] it was > 100 µM (inactive); in test [5], above 100 µM. Besides, the GI50 in [6], in test [7], in test [8], in test [9], in test [10] and in [11] was > 100 µM (inactive) in each case. Also, the GI50 in test [14], in [15], in [20], in test [16] and in test [17] was > 100 µM (inactive) in each case.

Take `CC(=O)OCCCCn1cnc2c(Cl)nc(Nc3ccccc3)nc21`: the GI50 in test [1], in [2], in test [3], in [18], in [19] and in test [4] was > 100 µM (inactive) in each case. In addition, the GI50 in test [5] was above 100 µM; in test [6], > 100 µM (inactive); in [7], > 100 µM (inactive); in test [8], > 100 µM (inactive); in test [9] it was 54.7 µM (inactive); in test [10], > 100 µM (inactive). Moreover, the GI50 in [11] is > 100 µM (inactive); in [13] it was > 100 µM (inactive); in [14] it was > 100 µM (inactive); in test [15], 65.6 µM (inactive); in [16], > 100 µM (inactive); in [17], > 100 µM (inactive).
